Measured values reported in PubChem BioAssay AID330 (DTP/NCI, 2004).
Values joined by “and” are separate entries in the source; they are usually repeats but may differ in a detail not shown here. Equal entries are not always repeated. Inconclusive results and toxic doses are left out. How the source made its calls: active means survival T/C of 150% or more; inactive means T/C below 125% in these data.

Tested on: P388 leukemia ip, CD2F1 mice, survival T/C
Test: NCI In Vivo Anticancer Drug Screen. Data for tumor model P388 Leukemia (intraperitoneal) in CD2F1 (CDF1) mice
Settings: endpoint: median survival time, higher = longer survival
Outline: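 Mice carrying the transplanted tumor received test compound or vehicle. Survival was recorded in each group, and the value is the treated-group measurement divided by that of the vehicle-treated control group.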

[1] = dose: 60.0 mg/kg/injection, schedule: Q01DX005 (ip), vehicle: saline with Tween-80
[2] = dose: 120.0 mg/kg/injection, schedule: Q01DX005 (ip), vehicle: saline with Tween-80
[3] = dose: 240.0 mg/kg/injection, schedule: Q01DX005 (ip), vehicle: saline with Tween-80
[4] = dose: 25.0 mg/kg/injection, schedule: Q01DX009 (ip), vehicle: Klucel (hydroxypropylcellulose) (HPC)
[5] = dose: 50.0 mg/kg/injection, schedule: Q01DX009 (ip), vehicle: saline with Tween-80
[6] = dose: 100.0 mg/kg/injection, schedule: Q01DX009 (ip), vehicle: saline with Tween-80
[7] = dose: 200.0 mg/kg/injection, schedule: Q01DX009 (ip), vehicle: saline with Tween-80
[8] = dose: 50.0 mg/kg/injection, schedule: Q01DX005 (ip), vehicle: saline with Tween-80
[9] = dose: 100.0 mg/kg/injection, schedule: Q01DX005 (ip), vehicle: saline with Tween-80
[10] = dose: 200.0 mg/kg/injection, schedule: Q01DX005 (ip), vehicle: saline with Tween-80
[11] = dose: 50.0 mg/kg/injection, schedule: Q01DX005 (ip), vehicle: Klucel (hydroxypropylcellulose) (HPC)
[12] = dose: 100.0 mg/kg/injection, schedule: Q01DX005 (ip), vehicle: Klucel (hydroxypropylcellulose) (HPC)
[13] = dose: 200.0 mg/kg/injection, schedule: Q01DX005 (ip), vehicle: Klucel (hydroxypropylcellulose) (HPC)
[14] = dose: 12.5 mg/kg/injection, schedule: Q01DX009 (ip), vehicle: other
[15] = dose: 25.0 mg/kg/injection, schedule: Q01DX009 (ip), vehicle: other
[16] = dose: 50.0 mg/kg/injection, schedule: Q01DX009 (ip), vehicle: other
[17] = dose: 100.0 mg/kg/injection, schedule: Q01DX009 (ip), vehicle: other
[18] = dose: 200.0 mg/kg/injection, schedule: Q01DX009 (ip), vehicle: other
[19] = dose: 60.0 mg/kg/injection, schedule: Q01DX005 (ip), vehicle: Klucel (hydroxypropylcellulose) (HPC)
[20] = dose: 120.0 mg/kg/injection, schedule: Q01DX005 (ip), vehicle: Klucel (hydroxypropylcellulose) (HPC)
[21] = dose: 240.0 mg/kg/injection, schedule: Q01DX005 (ip), vehicle: Klucel (hydroxypropylcellulose) (HPC)
[22] = dose: 100.0 mg/kg/injection, schedule: Q01DX001 (ip), vehicle: Klucel (hydroxypropylcellulose) (HPC)
[23] = dose: 200.0 mg/kg/injection, schedule: Q01DX001 (ip), vehicle: Klucel (hydroxypropylcellulose) (HPC)

Measured: T/C

CCOC(=O)C(CC(=O)O)=C1c2ccccc2-c2ccccc21
inactive: [1] 104 % of control | [2] 113 % of control | [3] 107 % of control

CC1c2c(cc(OC(=O)c3cccc(S(=O)(=O)F)c3)nc2OC(=O)c2cccc(S(=O)(=O)F)c2)C(=O)N1Cc1ccccc1 (configuration not stated)
inactive: dose: 6.25 mg/kg/injection, schedule: Q01DX009 (ip), vehicle: Klucel (hydroxypropylcellulose) (HPC) 97 % of control | dose: 12.5 mg/kg/injection, schedule: Q01DX009 (ip), vehicle: Klucel (hydroxypropylcellulose) (HPC) 88 % of control | [4] 87 % of control

CCCCCCC(=O)CC(SCC)c1c(Cl)cccc1Cl (configuration not stated)
inactive: [5] 89 % of control | [6] 98 % of control | [7] 100 % of control

Cc1ccc(O)c(C(c2cc(C)ccc2O)c2ccccc2Cl)c1
inactive: [5] 108 % of control | [6] 108 % of control | [7] 103 % of control

COC1=CC(=O)C(C(C)=O)=C(C2(C)C(=O)CCCC2=O)C1=O
inactive: [8] 106 % of control | [9] 89 % of control | [10] 104 % of control

COc1ccc(C(CC(C)=O)c2cc3c(cc2OC(C)=O)OCO3)cc1 (configuration not stated)
inactive: [1] 97 % of control | [2] 103 % of control | [3] 99 % of control

CCOC1=NC2(c3ccccc3)c3ccccc3SC12C (configuration not stated)
inactive: [11] 98 % of control | [12] 100 % of control | [13] 93 % of control

CC(C)=CCCC(C)(OC1OC(CO)C(O)C(O)C1O)C1CCC2(C)C1C(O)CC1C3(C)CCC(O)C(C)(C)C3C(OC3OC(CO)C(O)C(O)C3OC3OC(C)C(O)C(O)C3O)CC12C (configuration not stated)
inactive: dose: 2.0 mg/kg/injection, schedule: Q01DX009 (ip), vehicle: Klucel (hydroxypropylcellulose) (HPC) 88 % of control | dose: 4.0 mg/kg/injection, schedule: Q01DX009 (ip), vehicle: Klucel (hydroxypropylcellulose) (HPC) 92 % of control | dose: 8.0 mg/kg/injection, schedule: Q01DX009 (ip), vehicle: Klucel (hydroxypropylcellulose) (HPC) 92 % of control | dose: 16.0 mg/kg/injection, schedule: Q01DX009 (ip), vehicle: Klucel (hydroxypropylcellulose) (HPC) 95 % of control | [4] 98 % of control | dose: 32.0 mg/kg/injection, schedule: Q01DX009 (ip), vehicle: Klucel (hydroxypropylcellulose) (HPC) 88 % of control | dose: 50.0 mg/kg/injection, schedule: Q01DX009 (ip), vehicle: Klucel (hydroxypropylcellulose) (HPC) 100 % of control | dose: 100.0 mg/kg/injection, schedule: Q01DX009 (ip), vehicle: Klucel (hydroxypropylcellulose) (HPC) 100 % of control | dose: 200.0 mg/kg/injection, schedule: Q01DX009 (ip), vehicle: Klucel (hydroxypropylcellulose) (HPC) 98 % of control

CN1CC2Cc3ccc(O)cc3C(C)(C2)C1 (configuration not stated)
inactive: dose: 12.5 mg/kg/injection, schedule: Q01DX009 (ip), vehicle: saline 98 % of control | dose: 25.0 mg/kg/injection, schedule: Q01DX009 (ip), vehicle: saline 96 % of control | [5] 87 % of control | dose: 50.0 mg/kg/injection, schedule: Q01DX009 (ip), vehicle: saline 98 % of control

CC1(OC(=O)c2ccc(Cl)cc2)CC(C)(C)[N+]([O-])=N1 (configuration not stated)
inactive: [14] 103 % of control | [15] 99 % of control | [16] 99 % of control | [17] 96 % of control | [18] 99 % of control

CNC(=O)Oc1cccc(N=CN(C)C)c1
inactive: dose: 0.93 mg/kg/injection, schedule: Q01DX005 (ip), vehicle: saline 97 % of control | dose: 1.87 mg/kg/injection, schedule: Q01DX005 (ip), vehicle: saline 101 % of control | dose: 3.75 mg/kg/injection, schedule: Q01DX005 (ip), vehicle: saline 95 % of control

CC1(O)c2ccccc2-c2ccccc2C1(C)O (configuration not stated)
inactive: [8] 97 % of control | [9] 100 % of control | [10] 90 % of control

CCOC(=O)N1C=CC(C(=O)OC)=CC=C1C(=O)OC
inactive: [11] 98 % of control | [12] 95 % of control | [13] 94 % of control

O=[N+]([O-])c1cc2[nH]cnc2c([N+](=O)[O-])c1N1CCCCC1
inactive: dose: 25.0 mg/kg/injection, schedule: Q04DX003 (ip), vehicle: saline with Tween-80 92 % of control | dose: 50.0 mg/kg/injection, schedule: Q04DX003 (ip), vehicle: saline with Tween-80 92 % of control | dose: 100.0 mg/kg/injection, schedule: Q04DX003 (ip), vehicle: saline with Tween-80 100 % of control

CCCCC(NC(=O)CNC(=O)OCc1ccccc1)C(=O)O (configuration not stated)
inactive: [11] 90 % of control | [12] 104 % of control | [13] 95 % of control

O=C1c2ccccc2C(=O)c2c(NCCNCCO)ccc(NCCO)c21
inactive: dose: 5.0 mg/kg/injection, schedule: Q04DX002 (ip), vehicle: saline 115 % of control

OCC1CSC(=S)N1Cc1ccccc1 (configuration not stated)
inactive: [19] 97 % of control | [20] 100 % of control | [21] 107 % of control

[N-]=[N+]=CC(=O)c1ccc(Cl)cc1
inactive: dose: 100.0 mg/kg/injection, schedule: Q04DX003 (ip), vehicle: Klucel (hydroxypropylcellulose) (HPC) 108 % of control | dose: 200.0 mg/kg/injection, schedule: Q04DX003 (ip), vehicle: Klucel (hydroxypropylcellulose) (HPC) 115 % of control | dose: 400.0 mg/kg/injection, schedule: Q04DX003 (ip), vehicle: Klucel (hydroxypropylcellulose) (HPC) 107 % of control

CC1=C(C(=O)CC(=O)C(=O)Nc2ccc(C)cc2C)Sc2ccccc2N1
inactive: [1] 104 % of control | [2] 101 % of control | [3] 94 % of control

COc1cccc2sc(-n3c(C)nc4ccccc4c3=O)nc12
inactive: [19] 95 % of control | [20] 87 % of control | [21] 87 % of control

CCCCCNc1ncnc2[nH]ncc12
inactive: [8] 96 % of control | [9] 102 % of control

CC12CCC(OC3OC(CO)C(O)C(O)C3O)C=C1CCC1C2CCC2(C)C(c3ccc(=O)oc3)CCC12 (configuration not stated)
inactive: dose: 6.25 mg/kg/injection, schedule: Q01DX005 (ip), vehicle: Klucel (hydroxypropylcellulose) (HPC) 95 % of control | dose: 12.5 mg/kg/injection, schedule: Q01DX005 (ip), vehicle: Klucel (hydroxypropylcellulose) (HPC) 98 % of control | dose: 25.0 mg/kg/injection, schedule: Q01DX005 (ip), vehicle: Klucel (hydroxypropylcellulose) (HPC) 101 % of control and 98 % of control

C=CCc1ccccc1C1=[N+](C)C(C)(C)CO1
inactive: dose: 25.0 mg/kg/injection, schedule: Q04DX002 (ip), vehicle: saline with Tween-80 100 % of control | dose: 50.0 mg/kg/injection, schedule: Q04DX002 (ip), vehicle: saline with Tween-80 102 % of control | dose: 100.0 mg/kg/injection, schedule: Q04DX002 (ip), vehicle: saline with Tween-80 97 % of control

C=CC(c1ccccc1)c1cc2c(cc1OCCC)OCO2 (configuration not stated)
inactive: [11] 98 % of control | [12] 96 % of control | [13] 105 % of control

CC1=C(c2ccccc2)C(=O)OC1(c1ccccc1)c1ccccc1
inactive: dose: 50.0 mg/kg/injection, schedule: Q01DX001 (ip), vehicle: Klucel (hydroxypropylcellulose) (HPC) 91 % of control | [22] 88 % of control | [23] 89 % of control

COc1ccc(OC)c2c1CCC1(C2)NC(=O)NC1=O (configuration not stated)
inactive: [11] 111 % of control | [12] 100 % of control | [13] 95 % of control

COc1ccc(C(O)OC2CC3C=CC2C3)cc1 (configuration not stated)
inactive: [14] 114 % of control | [15] 110 % of control | [16] 114 % of control | [17] 114 % of control | [18] 111 % of control

O=c1oc2cc(-c3c(O)c4ccccc4oc3=O)c(O)cc2s1
inactive: [22] 113 % of control | [23] 104 % of control | dose: 400.0 mg/kg/injection, schedule: Q01DX001 (ip), vehicle: Klucel (hydroxypropylcellulose) (HPC) 106 % of control
